Measured values: patent US12492380B2, “Methods for the production of hepatocytes” (FUJIFILM Cellular Dynamics, Inc., priority 2019, dated 2025)

How the values were obtained:
iPSCs = test: CHIR99021 preconditioning/supplementation during iPSC to hepatocyte differentiation; type: cell-based, human; conditions: supplementation midway through differentiation
Procedure: iPS cells were maintained on […] ® in E8 Medium under hypoxic conditions (5% 02), using 0.5 mM EDTA for splitting approximately every 4-5 days. The iPSC cultures were acclimatized to hypoxia for around 10 passages before the onset of hepatocyte differentiation. Starting iPS cell cultures were seeded at 15-20 k/cm^2 on […] ®-coated 6-well plates or T150 flasks. Two days after seeding, media was changed to preconditioning medium (PCM) and fed daily for two-three days. Endoderm induction was performed by placing the cells in media containing activin (DE Day 0 Medium, also referred to as T0 medium). On days 1-2, media was changed to DE Day 1-2 Medium (also referred to as T1-T2 medium) containing activin, along with low concentrations of BMP4, VEGF and FGF2 for the next two days. From day 3-9, media was changed to DE Day 3-9 (also referred to as T3-T6 medium) with the base medium SFD, supplemented with Activin, BMP4 and VEGF. On day 10, a sampling of the culture was performed for staining the percentage of definitive endoderm cells. […] Surface staining was performed to quantify the levels of Tra181, CXCR4, CD117 by flow cytometry. […]
Alternately, the cell individualized cell suspension was placed in media for aggregate formation. […] Intracellular staining to quantify the levels of AAT, ASGPR, Albumin, and matched isotypes was performed via flow cytometry. […]

iPSC-derived hepatocytes = test: Stage 3 maturation of thawed end of Stage 2 hepatocytes (morphology, AAT and albumin by flow cytometry); type: cell-based, human
Procedure: Thawing Cryopreserved hepatocytes at Stage 2 of differentiation and maturation to Stage 3 hepatocytes post thaw: Cryopreserved hepatocytes at the end of stage 2 were thawed in Stage 3 media. The cells were plated on Collagen I coated plates without spinning in the presence of a rock inhibitor. The media was gently changed at the end of 24 hours post plating. The maturation media contained SB/DAPT or Src kinase inhibitors and the cells were allowed to differentiate to additional 8-10 days with media exchanges every 48 hrs. The end stage cells were analyzed for hepatocyte morphology and the presence of AAT and albumin expression quantified by flow cytometry.
Generation of Liver organoids: Aggregates consisting of hepatocytes and other liver relevant cell types—specifically macrophages, MSC, and endothelial cells—designed to mimic liver organoid culture were established and maintained for 5-10 days. Aggregates were established in hepatocyte Stage 3 media (Table 2) supplemented with 1 μM of H1152, with the non-hepatocyte cells undergoing adaptation to Stage 3 media prior to initiation of co-cultures. For co-culture initiation, end of Stage 1 cells Hepatocytes were recovered from cryopreservation and aggregated at 500,000 cells/mL in Stage 2 media (Table 2) supplemented with 1 μM of rho kinase (rock) inhibitor H1152. […]

ZAP-70 = target: T1, ZAP-70 (Homo sapiens, UniProt P43403); conditions: cited from earlier work
T1 sequence (P43403 1-619): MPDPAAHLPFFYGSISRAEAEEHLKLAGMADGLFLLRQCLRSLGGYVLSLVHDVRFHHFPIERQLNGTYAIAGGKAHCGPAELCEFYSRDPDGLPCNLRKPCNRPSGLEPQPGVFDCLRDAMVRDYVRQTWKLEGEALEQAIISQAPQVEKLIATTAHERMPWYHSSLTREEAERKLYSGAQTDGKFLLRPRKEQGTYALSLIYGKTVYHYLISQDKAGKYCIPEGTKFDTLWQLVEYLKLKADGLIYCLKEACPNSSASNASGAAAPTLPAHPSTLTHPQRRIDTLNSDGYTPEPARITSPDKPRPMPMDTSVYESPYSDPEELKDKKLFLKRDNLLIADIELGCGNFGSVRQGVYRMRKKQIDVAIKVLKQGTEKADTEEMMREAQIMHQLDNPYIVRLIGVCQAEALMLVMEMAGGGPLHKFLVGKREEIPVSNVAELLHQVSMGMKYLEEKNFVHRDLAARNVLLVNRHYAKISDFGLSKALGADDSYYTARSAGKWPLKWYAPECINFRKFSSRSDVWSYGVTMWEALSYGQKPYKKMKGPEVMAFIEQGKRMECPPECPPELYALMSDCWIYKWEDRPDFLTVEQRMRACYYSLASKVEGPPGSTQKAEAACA

type I TGF-β receptors = conditions: direct inhibition, unrelated to Src signaling; cited from earlier work

maturation of hepatocytes in co-culture (iPSC-derived hepatocytes; in the presence of MSCs, macrophages and endothelial cells)	Structure (SMILES)	expansion of cells during hepatoblast to hepatocyte transition (iPSCs)	maturation of hepatocytes (iPSC-derived hepatocytes; PP1 substituted for SB431542/DAPT in Stage 3 maturation media, post thaw, preliminary data)	IC50 (ZAP-70) [nM]	IC50 (type I TGF-β receptors) [nM]
–	Cc1c[nH]c(-c2cnc(NCCNc3ccc(C#N)cn3)nc2-c2ccc(Cl)cc2Cl)n1 [CHIR99021]	effective in promoting the expansion of cells	–	–	–
enhances the maturation of Hepatocytes	Cc1ccc(-c2nn(C(C)(C)C)c3ncnc(N)c23)cc1 [PP1]	–	facilitated the maturation of hepatocytes	≥ 600	50
